Entries after “also recorded” stand apart in the source; their conditions may differ.
How the values were obtained:
cancer cells = assay: Killing of cancer cells by dithiocarbamates in the absence or presence of cadmium/zinc; type: cell-based; settings: for effectiveness in killing cancer cells in comparison to CCK3: 10-50 μM, absence or presence of 20 μM CdCl2/ZnCl2; for induction of cell death in the presence of cadmium or zinc: in vitro
Procedure: A large number of dithiocarbamates can be synthesized that, similar to 3-aminopropylpiperidine-1-carbodithioate (CCK3), contain a free amino group. Several of these compounds were synthesized and tested (in the range of 10-50 μM concentration) on cancer cells in the absence or presence of 20 μM CdCl2/ZnCl2 in comparison to CCK3, as follows. […] Similarly, 1-{[(3-aminopropyl)thio]carbonothiol}pyrrolidine-2-carboxilic acid.HCl salt (for structure see FIG. 1) was ineffective both in the absence and presence of cadmium/zinc. The last two compounds may be ineffective because the presence of carboxyl group may interfere with proper binding of cadmium and zinc to the molecule. 3-Aminopropylpyrrolidine-1-carbodithionate. […] From this list, it appears that not every free amino group-containing dithiocarbamate can effectively kill cells in the presence of cadmium and zinc. In some of these cases the metal atom may bind to the dithiocarbamate molecule too strongly (covalently), not allowing dissociation of the metal from the molecule once inside the cell. After comparison of the above compounds with the effects of CCK3, further experiments were principally carried out with PDC and CCK3. These are representative compounds that can be the most effectively and most economically used when either no further modification of the molecule is required (PDC) or when modification with a targeting moiety is required (CCK3).

MDA-MB-231 cells = assay: [3H]thymidine DNA synthesis; type: cell-based, human; settings: 60 min treatment, 10 μM cadmium, alone or in combination; [3H]thymidine during last 30 min
Procedure: (§1) Biochem. Biophys. Res. Commun. 213, 980-985]. […] Survival values obtained with untreated cells were considered 100%. […] Cancer Res. 47, 936-942].
(§2) MDA-MB-231 cells were cultured in Leibovitz's L-15 medium and 10% fetal bovine serum; the medium was changed 2 hours prior to treatments. For the treatments, cells were incubated in triplicate in 12-well plates. A typical experiment with these cells is illustrated in FIG. 3. The cells were untreated (FIG. 3A) or treated with 5 μM CCK3 (FIG. 3B), 10 μM cadmium (FIG. 3C), or 5 μM CCK3+10 μM cadmium (FIG. 3D) for 60 min in 10% serum-containing medium. […] In some experiments, cells were also incubated with [^3H]thymidine (1 μCi/ml) during the last 30 min of treatment to determine DNA synthesis. Cadmium and […] decreased DNA synthesis by 6 and 12%, while in combination they had 100% inhibitory effect.
(§3) The cells were cultured as described in Example 4. The cadmium/MT contained 5 cadmium atoms per one MT molecule while zinc/MT contained 5 zinc atoms per one MT molecule. […] Thus, in this cell line cadmium/MT+PDC killed cells more rapidly and efficiently compared to the same amount of zinc/MT+PDC.

[1] = tested on: T47D human mammary gland ductal carcinoma cells; assay: Cell death judged from cell morphology (photographs); type: cell-based; settings: 5 μM CCK3, 10 μM cadmium, alone or in combination; 4 hours; 10% serum-containing medium
T47D cells = assay: [3H]thymidine DNA synthesis; type: cell-based, human; settings: 5 μM CCK3, 10 μM cadmium, alone or in combination; 4 hours; [3H]thymidine during last 30 min
Procedure: as §1
T47D Cells were cultured in RPMI 1640 cell culture medium (see Gibco Catalogue) supplied with 2 mM L-glutamine, 10 mM Hepes, 1 mM sodium pyruvate, 4.5 g/L glucose, 1.5 g/L sodium bicarbonate, 0.2 I.U. bovine insulin/ml, and 10% fetal bovine serum. The medium was changed for fresh 10% serum-containing medium 2 hours prior to treatments. For the treatments, the cells were incubated in triplicate in 12-well plates. The cells were untreated (FIG. 2A) or treated with 5 μM CCK3 alone (FIG. 2B), 10 μM cadmium alone (FIG. 2C), or 5 μM CCK3 and 10 μM cadmium in combination (FIG. 2D) for 4 hours in 10% serum-containing medium when the photographs were taken. […] Finally, cells were incubated with [^3H]thymidine (1 μCi/ml) during the last 30 min of treatment to determine DNA synthesis. Cadmium and CCK3 decreased DNA synthesis by 13 and 8% respectively, while in combination they had practically 100% inhibitory effect.

[2] = tested on: MDA-MB-231 human mammary gland adenocarcinoma cells; assay: Cell death judged from cell morphology (photographs); type: cell-based; settings: 5 μM CCK3, 10 μM cadmium, alone or in combination; 60 min; 10% serum-containing medium
Procedure: as §2, §3

[3] = tested on: various cancer and human normal 966 SK skin fibroblasts; assay: MTT assay, statements over all cell lines of Example 6; type: cell-based; settings: CCK3 10 μM, cadmium/MT 60 μg/ml, alone or combined, 24 hour
Procedure: as §1
MCF-7 estrogen receptor positive human breast carcinoma cells and CaOV-3 human ovarian adenocarcinoma cells were grown in Dulbecco's modified Eagle's medium containing 4 mM L-glutamine, 1.5 g/L sodium bicarbonate, 4.5 g/L glucose, 1 mM sodium pyruvate and 10% fetal bovine serum. T47D human mammary gland ductal carcinoma cells and ZR-75-1 estrogen receptor positive human mammary gland ductal carcinoma cells were cultured in RPMI 1640 medium as indicated above. MB-468 and MB-231 human mammary gland adenocarcinoma cells were maintained in Leibovitz's L-15 medium as described above. AN3CA human endometrial adenocarcinoma and 966 SK normal human skin fibroblasts were cultured in Eagles's minimum essential medium supplemented with 0.1 mM non-essential amino acids and 10% fetal bovine serum. The preparation of MT (from Sigma-Aldrich, Inc.) used in this experiment contained about 4 ions of cadmium and only about 0.3 ions of zinc per MT molecule. […] The MTT assay was used for the determination of relative cell numbers. Data are illustrated in FIG. 4 as rates of growth inhibition (maximum inhibition=100%) in comparison to values without treatment. The error bars indicate S.D. (n=8). […]

[4] = tested on: ZR-75-1 human breast cancer cells; assay: Cell death judged from cell morphology (photographs); type: cell-based
Procedure: ZR-75-1 cells were cultured in triplicate in 12-well plates in the medium described in Example 4. The cadmium/MT contained 5 atoms of cadmium and 1 atom of zinc, while the zinc/MT contained 5 atoms of zinc and 1 atom of cadmium per one MT molecule. ZR-75-1 cells were incubated in 10% serum-containing medium for 24 h in the absence (FIG. […] 6D), 240 μg/ml of zinc/MT (FIG. […] 6F).
(§4) Cells were cultured in triplicate in 12-well plates as described in Example 4. The ratio of cadmium and zinc in cadmium/MT was 5:1 per one MT molecule. ZR-75-1 cells were incubated in 10% serum-containing medium for 8 hours in the absence (FIG. 7A) or presence of 20 μM CCK3 (FIG. 7B), 120 μg/ml of cadmium/MT (FIG. 7C), or 120 μg/ml of cadmium/MT+20 μM CCK3 (FIG. 7D).

ZR-75-1 cells = tested on: ZR-75-1 cells
Procedure: Biochem. Biophys. Res. Commun. […] Survival values obtained with untreated cells were considered 100%.
ZR-75-1 cells were cultured in triplicate in 12-well plates in the medium described in Example 4. The cadmium/MT contained 5 atoms of cadmium and 1 atom of zinc, while the zinc/MT contained 5 atoms of zinc and 1 atom of cadmium per one MT molecule. ZR-75-1 cells were incubated in 10% serum-containing medium for 24 h in the absence (FIG. 6A) or presence of 15 μM CCK3 (FIG. 6B), 60 μg/ml of cadmium/MT (FIG. 6C), 60 μg/ml of cadmium/MT+15 μM CCK3 (FIG. 6D), 240 μg/ml of zinc/MT (FIG. 6E), or 240 μg/ml of zinc/MT+15 μM CCK3 (FIG. 6F).
as §4

MCF-7 cells [5] = assay: Cell death judged from cell morphology (photographs); type: cell-based, human; settings: 20 μM CCK3, 120 μg/ml cadmium/MT, alone or combined; 8 hours; 10% serum
Procedure: (§5) The cells were cultured as described in Example 4.

MCF-7 cells [6] = assay: Trypan blue exclusion assay; type: cell-based, human; settings: 20 μM CCK3, 120 μg/ml cadmium/MT, alone or combined; 8 hours
Procedure: as §1, §5

[7] = tested on: cancer cells (CaOV-3, T47D and PC-3); assay: MTT assay / killing, statements over several cancer cell lines (metal/MTLP-25); type: cell-based, human; settings: 20 μM CCK3, 100 μg/ml metal/MTLP-25, 24 hours; summary of Table 1
Procedure: The concentration range for these cadmium/MTLP-25 effects in some embodiments is 10-600 μg/ml, while in other embodiments, the concentration range is 50-200 μg/ml. Therapeutically effective concentrations of metal/MTLP-25 and CCK3 or PDC exert maximal effects on tumors without causing significant toxicity.
PC-3 human prostate adenocarcinoma cells were maintained and treated in Ham's F12K medium containing 7% fetal bovine serum. The CaOV-3 human ovarian adenocarcinoma cells were maintained and treated in Dulbecco's modified Eagle's medium containing 4 mM L-glutamine, 1.5 g/L sodium bicarbonate, 4.5 g/L glucose, 1 mM sodium pyruvate and 10% fetal bovine serum. T47D were maintained and treated in RPMI 1640 cell culture medium (see Gibco Catalogue) supplied with 2 mM L-glutamine, 10 mM Hepes, 1 mM sodium pyruvate, 4.5 g/L glucose, 1.5 g/L sodium bicarbonate, 0.2 I.U. bovine insulin/ml, and 10% fetal bovine serum. The cells were incubated in 96-well plates in the medium described above for 24 hours in the absence or presence of 20 μM CCK3 and/or 100 μg/ml of cadmium/MTLP-25 or 100 μg/ml of zinc/MTLP-25 as indicated in Table 1. After the treatment period, the MTT assay was used to determine the relative cell number of viable cells. Errors are expressed as S.D. (n=8 for each treatment).

## Cl.NCCCSC(=S)N1CCCC1C(=O)O (stereo not shown) [1-{[(3-aminopropyl)thio]carbonothiol}pyrrolidine-2-carboxilic acid.HCl salt]
Cancer cells
  effectiveness in killing cancer cells in comparison to CCK3: ineffective

## NCCCSC(=S)N1CCCCC1C(=O)O (stereo not shown) [1-{[(3-aminopropyl)thio]carbonothioyl}piperidine-2-carboxilic acid]
Cancer cells
  effectiveness in killing cancer cells in comparison to CCK3: not effective at all

## S=C(S)N1CCCC1 [PDC, pyrrolidinecarbodithioic acid, reference compound]
MDA-MB-231 cells
  decrease of DNA synthesis: 12%

## Cl.NCCCSC(=S)N1CCCCC1 [CCK3, 3-aminopropylpiperidine-1-carbodithioate.HCl salt]
[1]
  cell death indicated by cell morphology (cell rounding): no effects on cell morphology
T47D cells
  decrease of DNA synthesis: 8%
[2]
  cell death indicated by cell morphology (cell rounding): no effects on cell morphology
[3]
  cell viability (FIG. 4): significantly smaller than the combined effects
[4]; 20 μM CCK3, 120 μg/ml cadmium/MT, alone or combined, 8 hours, 10% serum
  cell death indicated by cell morphology: failed to significantly alter cell morphology
[4]; CCK3 10 μM, cadmium/MT 60 μg/ml, zinc/MT 240 μg/ml, alone or MT+CCK3, 24 hours
  cell death indicated by cell morphology (FIG. 6 legend): failed to significantly alter cell morphology
ZR-75-1 cells; 15 μM CCK3, 60 μg/ml cadmium/MT, 240 μg/ml zinc/MT, alone or MT+CCK3, 24 h
  cells killed (trypan blue exclusion assay): practically no effects
ZR-75-1 cells; 20 μM CCK3, 120 μg/ml cadmium/MT, alone or combined, 8 hours
  cells with decreased viability / killed (trypan blue exclusion assay): 16%
MCF-7 cells [5]
  cell death indicated by cell morphology: failed to significantly alter cell morphology
MCF-7 cells [6]
  cells killed (trypan blue exclusion assay): practically no effects on viability
[7]
  reduction of the viability of cancer cells: no effects
Cancer cells
  induction of cell death in the presence of cadmium or zinc: retains its ability to carry metals inside the cells resulting in cell death; also recorded: killed the cells

## C[N+](C)(C)CCOC(=S)SCCCN.[Cl-] [2({[(3-aminopropyl)thio]carbonothionyl}oxy)-N,N,N-trimethylethanolamine-chloride]
Cancer cells
  effectiveness in killing cancer cells in comparison to CCK3: less effective than CCK3

## CCN(CC)C(=S)S [diethyldithocarbamate, reference compound]
Cancer cells
  induction of cell death in the presence of cadmium or zinc: as effective as CCK3

## cadmium
[1]
  cell death indicated by cell morphology (cell rounding): no effects on cell morphology
T47D cells
  decrease of DNA synthesis: 13%
[2]
  cell death indicated by cell morphology (cell rounding): no effects on cell morphology
MDA-MB-231 cells
  decrease of DNA synthesis: 6%

## Cl.NCCCSC(=S)N1CCCC1 [3-Aminopropylpyrrolidine-1-carbodithionate. HCl salt]
Cancer cells
  effectiveness in killing cancer cells in comparison to CCK3: significantly less effective than CCK3

— patent US7655620B2, “Use of one or more metal carriers to selectively kill mammalian cells” (Cancure Laboratories, LLC, priority 2005, dated 2010)
